US4003887A, “Novel penicillins and their preparation” (Sumitomo Chemical Company, Limited, priority 1972, dated 1977)
Converted amounts (≈) assume the structure as drawn.

Tests used:
Pseudomonas = settings: literature, words; cited from earlier work
[1] = tested on: gram-positive and gram-negative bacteria; settings: literature, words; cited from earlier work
[2] = tested on: Klebsiella pneumoniae PC1602; test: Minimal inhibitory concentration, agar dilution method; format: cell-based
Text: (§1) When determined according to the agar dilution method, the penicillins (I) afford the minimal inhibitory concentrations against test microorganisms as shown in Table 2.

Proteus miravilis GN2425 = test: as above; format: cell-based
[3] = tested on: Staphylococcus aureus 209P; test: as above; format: cell-based
Text: as §1

[4] = tested on: Pseudomonas aeruginosa 104; test: as above; format: cell-based
Text: as §1

Escherichia coli NIHJ = test: as above; format: cell-based
Text: as §1

6 -(α-amino-isothiazolylacetamido)penicillanic acid
antimicrobial activity against Pseudomonas (Pseudomonas): do not exert any appreciable antimicrobial activity against Pseudomonas | inhibition of growth of gram-positive and gram-negative bacteria [1]: inhibit the growth of various gram-positive and gram-negative bacteria

6-(α-amino-thienylacetamido)penicillanic acid
antimicrobial activity against Pseudomonas (Pseudomonas): do not exert any appreciable antimicrobial activity against Pseudomonas | inhibition of growth of gram-positive and gram-negative bacteria [1]: inhibit the growth of various gram-positive and gram-negative bacteria

CC1(C)S[C@@H]2C(NC(=O)C(N)c3ccc(O)cc3)C(=O)N2[C@H]1C(=O)O (stereo partly drawn) [Amoxycillin, 6-(α-amino-p-hydroxyphenylacetamido)penicillanic acid]
MIC [2]: > 200 µg/mL | antimicrobial activity against Pseudomonas (Pseudomonas): do not exert any appreciable antimicrobial activity against Pseudomonas | inhibition of growth of gram-positive and gram-negative bacteria [1]: inhibit the growth of various gram-positive and gram-negative bacteria

CC1(C)S[C@@H]2C(NC(=O)C(N)c3ccccc3)C(=O)N2[C@H]1C(=O)O (stereo partly drawn) [Ampicillin, 6-(α-amino-phenylacetamido)penicillanic acid]
antimicrobial activity against Pseudomonas (Pseudomonas): do not exert any appreciable antimicrobial activity against Pseudomonas | inhibition of growth of gram-positive and gram-negative bacteria [1]: inhibit the growth of various gram-positive and gram-negative bacteria

CC1(C)S[C@@H]2[C@H](NC(=O)C3(N)CCCCC3)C(=O)N2[C@H]1C(=O)O [Cyclacillin, 6-(1-amino-cyclohexane)carboxamidopenicillanic acid]
antimicrobial activity against Pseudomonas (Pseudomonas): do not exert any appreciable antimicrobial activity against Pseudomonas | inhibition of growth of gram-positive and gram-negative bacteria [1]: inhibit the growth of various gram-positive and gram-negative bacteria

CC1(C)S[C@@H]2[C@H](NC(=O)[C@H](N)C3=CCC=CC3)C(=O)N2[C@H]1C(=O)O [Epicillin, 6-[α-amino-2-(1,4-hexadienylacetamido)]penicillanic acid]
antimicrobial activity against Pseudomonas (Pseudomonas): do not exert any appreciable antimicrobial activity against Pseudomonas | inhibition of growth of gram-positive and gram-negative bacteria [1]: inhibit the growth of various gram-positive and gram-negative bacteria

CC1(C)S[C@@H]2[C@H](NC(=O)C(NC(=O)c3cnc4cccnc4c3O)c3cccc(O)c3)C(=O)N2[C@H]1C(=O)O (stereo partly shown) [Example 16]
MIC [2]: 25 µg/mL (≈ 46.5 µM)

CCOC(=O)Oc1ccc([C@@H](NC(=O)c2cnc3ccc(SC)nc3c2O)C(=O)N[C@@H]2C(=O)N3[C@@H]2SC(C)(C)[C@@H]3C(=O)O)cc1 [Example 17]
MIC [2]: 3.13 µg/mL (≈ 4.77 µM)

Cc1ccc2ncc(C(=O)N[C@@H](C(=O)N[C@@H]3C(=O)N4[C@@H]3SC(C)(C)[C@@H]4C(=O)O)c3ccc(O)cc3)c(O)c2n1 [Example 18]
MIC [2]: 12.5 µg/mL (≈ 22.7 µM)

COc1ccc2ncc(C(=O)N[C@@H](C(=O)N[C@@H]3C(=O)N4[C@@H]3SC(C)(C)[C@@H]4C(=O)O)c3ccc(O)cc3)c(O)c2n1 [Example 19]
MIC [2]: 12.5 µg/mL (≈ 22 µM)

CCOC(=O)Oc1ccc([C@@H](NC(=O)c2cnc3cc([N+](=O)[O-])ccc3c2O)C(=O)N[C@@H]2C(=O)N3[C@@H]2SC(C)(C)[C@@H]3C(=O)O)cc1 [Example 20]
MIC [2]: 3.13 µg/mL (≈ 4.79 µM)

CC1(C)S[C@@H]2[C@H](NC(=O)[C@H](NC(=O)c3cnc4ccc(NC(=O)OCc5ccccc5)cc4c3O)c3ccc(O)cc3)C(=O)N2[C@H]1C(=O)O [Example 21]
MIC (Proteus miravilis GN2425): 12.5 µg/mL (≈ 18.2 µM) | MIC [3]: 0.39 µg/mL (≈ 0.569 µM) | MIC [4]: 12.5 µg/mL (≈ 18.2 µM) | MIC [2]: 3.13 µg/mL (≈ 4.56 µM) | MIC (Escherichia coli NIHJ): 12.5 µg/mL (≈ 18.2 µM)

CC1(C)S[C@@H]2[C@H](NC(=O)[C@H](NC(=O)c3cnc4ccc(O)nc4c3O)c3ccc(O)cc3)C(=O)N2[C@H]1C(=O)O [Example 22]
MIC [2]: 12.5 µg/mL (≈ 22.6 µM)

CCOC(=O)Oc1ccc([C@@H](NC(=O)c2cnc3ccc(NC(C)=O)nc3c2O)C(=O)N[C@@H]2C(=O)N3[C@@H]2SC(C)(C)[C@@H]3C(=O)O)cc1 [Example 23]
MIC [2]: 25 µg/mL (≈ 37.5 µM)

CC1(C)S[C@@H]2[C@H](NC(=O)[C@H](NC(=O)c3cnc4ccc(N)nc4c3O)c3ccc(O)cc3)C(=O)N2[C@H]1C(=O)O [Example 24]
MIC [2]: 12.5 µg/mL (≈ 22.6 µM)

CCOC(=O)Oc1ccc([C@@H](NC(=O)c2cnc3ccc(N(C)C)nc3c2O)C(=O)N[C@@H]2C(=O)N3[C@@H]2SC(C)(C)[C@@H]3C(=O)O)cc1Cl [Example 25]
MIC [2]: 12.5 µg/mL (≈ 18.2 µM)

CC1(C)S[C@@H]2[C@H](NC(=O)C(NC(=O)c3cnc4cccnc4c3O)c3cccc(O)c3)C(=O)N2[C@H]1C(=O)O (stereo partly shown) [Example 26]
Minimal inhibitory concentration [2]: 25 µg/mL (≈ 46.5 µM)

CC1(C)S[C@@H]2[C@H](NC(=O)[C@H](NC(=O)c3cc4ccccc4nc3O)c3ccc(O)cc3)C(=O)N2[C@H]1C(=O)O [Example 27]
MIC [2]: 12.5 µg/mL (≈ 23.3 µM)

COc1nc(OC)c2c(O)c(C(=O)N[C@@H](C(=O)N[C@@H]3C(=O)N4[C@@H]3SC(C)(C)[C@@H]4C(=O)O)c3ccc(O)cc3)cnc2n1 [Example 28]
MIC [2]: 12.5 µg/mL (≈ 20.9 µM)

CC1(C)S[C@@H]2[C@H](NC(=O)[C@H](NC(=O)c3cnc4ccncc4c3O)c3ccc(O)cc3)C(=O)N2[C@H]1C(=O)O [Example 29]
MIC [2]: 25 µg/mL (≈ 46.5 µM)

CC(C)COC(=O)Oc1ccc([C@@H](NC(=O)c2cnc3nc(N(C)C)ncc3c2O)C(=O)N[C@@H]2C(=O)N3[C@@H]2SC(C)(C)[C@@H]3C(=O)O)cc1 [Example 30]
MIC [2]: 12.5 µg/mL (≈ 18.3 µM)

Cc1nc(C)c2c(O)c(C(=O)N[C@@H](C(=O)N[C@@H]3C(=O)N4[C@@H]3SC(C)(C)[C@@H]4C(=O)O)c3ccc(O)cc3)cnc2n1 [Example 31]
MIC [2]: 12.5 µg/mL (≈ 22.1 µM)

CC1(C)S[C@@H]2[C@H](NC(=O)[C@H](NC(=O)c3cnc4cccnc4c3O)c3ccc(O)c(Cl)c3)C(=O)N2[C@H]1C(=O)O [Example 32]
MIC [2]: 25 µg/mL (≈ 43.7 µM)

CCOC(=O)Oc1ccc([C@@H](NC(=O)c2cnc3cn[nH]c3c2O)C(=O)N[C@@H]2C(=O)N3[C@@H]2SC(C)(C)[C@@H]3C(=O)O)cc1 [Example 33]
MIC [2]: 12.5 µg/mL (≈ 20.9 µM)

CC1(C)S[C@@H]2[C@H](NC(=O)[C@H](NC(=O)c3cnc4cncnc4c3O)c3ccc(O)cc3)C(=O)N2[C@H]1C(=O)O [Example 34]
MIC [2]: 12.5 µg/mL (≈ 23.2 µM)

Cc1nc(C)c2ncc(C(=O)N[C@@H](C(=O)N[C@@H]3C(=O)N4[C@@H]3SC(C)(C)[C@@H]4C(=O)O)c3ccc(O)cc3)c(O)c2n1 [Example 35]
MIC [2]: 12.5 µg/mL (≈ 22.1 µM)

CCOC(=O)Oc1ccc([C@@H](NC(=O)c2cnc3c(OC)nc(OC)nc3c2O)C(=O)N[C@@H]2C(=O)N3[C@@H]2SC(C)(C)[C@@H]3C(=O)O)cc1 [Example 36]
MIC [2]: 25 µg/mL (≈ 37.3 µM)

CCOC(=O)Oc1ccc([C@@H](NC(=O)c2cnc3cccnc3c2OC(=O)OCC)C(=O)N[C@@H]2C(=O)N3[C@@H]2SC(C)(C)[C@@H]3C(=O)O)cc1 [Example 37]
MIC [2]: 12.5 µg/mL (≈ 18.3 µM)

CCOC(=O)Oc1ccc([C@@H](NC(=O)c2cnc3cc4c(cc3c2S)OCO4)C(=O)N[C@@H]2C(=O)N3[C@@H]2SC(C)(C)[C@@H]3C(=O)O)cc1 [Example 38]
MIC [2]: 6.25 µg/mL (≈ 9.35 µM)

CCOC(=O)Oc1ccc([C@@H](NC(=O)c2cnc3cccnc3c2S)C(=O)N[C@@H]2C(=O)N3[C@@H]2SC(C)(C)[C@@H]3C(=O)O)cc1 [Example 39]
MIC [2]: 6.25 µg/mL (≈ 9.99 µM)

CC1(C)S[C@@H]2[C@H](NC(=O)C(NC(=O)c3cnc4cccnc4c3S)c3cc(Cl)c(O)c(Cl)c3)C(=O)N2[C@H]1C(=O)O (stereo partly shown) [Example 40]
MIC [2]: 25 µg/mL (≈ 40.2 µM)

COc1cnc2c(O)c(C(=O)N[C@@H](C(=O)N[C@@H]3C(=O)N4[C@@H]3SC(C)(C)[C@@H]4C(=O)O)c3ccc(O)cc3)cnc2n1 [Example 41]
MIC [2]: 25 µg/mL (≈ 44 µM)

CCOC(=O)Oc1ccc([C@@H](NC(=O)c2cnc3scnc3c2O)C(=O)N[C@@H]2C(=O)N3[C@@H]2SC(C)(C)[C@@H]3C(=O)O)cc1 [Example 42]
MIC [2]: 12.5 µg/mL (≈ 20.3 µM)

CC1(C)S[C@@H]2[C@H](NC(=O)[C@H](NC(=O)c3cnc4cccnc4c3S)c3ccc(O)cc3)C(=O)N2[C@H]1C(=O)O [Example 43]
MIC [2]: 6.25 µg/mL (≈ 11.3 µM)

CC1(C)S[C@@H]2[C@H](NC(=O)C(NC(=O)c3ccccn3)c3ccccc3)C(=O)N2[C@H]1C(=O)O (stereo partly shown) [R, reference compound]
Minimal inhibitory concentration [2]: 50 µg/mL (≈ 110 µM)
